Measurements as given in patent US20240301319A1, “PERFUMING COMPOSITIONS” (FIRMNICH SA, priority 2017, published 2024).
Values joined by “and” are separate entries in the source; they are usually repeats but may differ in a detail not shown here. Equal values may be shown once.

Assays:
[1] = Volatility of perfuming compounds (Tables 4 to 10), with top/middle/bottom note type; type: physicochemical
Summary of the method: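 Volatility is expressed in μg/l in air. Top notes are 70,000 to 100 μg/l, middle notes 99 to 50 μg/l, and bottom notes 49 to 0.1 μg/l. Compounds are grouped by olfactive family: watery, green, fruity, citrus, sweet, gourmand and woody.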

[2] = Log P (n-octanol/water) of perfuming compounds (Tables 4 to 10)
[3] = Odor threshold and odor value of perfuming compounds (Tables 4 to 10)
[4] = Table 6, perfuming compounds having a fruity note
[5] = Table 6, perfuming compounds having a fruity note, note type by volatility
[6] = Table 10, perfuming compounds having a woody note, note type by volatility
[7] = perfuming compounds having a green note
[8] = note type (Top/Middle/Bottom) by volatility, perfuming compounds having a green note
[9] = n-octanol/water, perfuming compounds having a green note
[10] = Table 8, perfuming compounds having a sweet note
[11] = Table 9, perfuming compounds having a gourmand note, note type by volatility
[12] = Table 7, citrus note, equals volatility divided by odor threshold
[13] = Table 7, citrus note, top, middle or bottom note

Molecule	Volatility [1, 4] [μg/l air]	Type [1, 5]	Log P (n-octanol/water) [2, 4]	Odor Threshold (μg/l air) [3, 7] [μg/l air]	Type [1, 8]	Volatility (μg/l air) [1, 7] [μg/l air]	Log P (n-octanol/water) [2, 9]	other results
CC(OC=O)C1CCCC(C)(C)C1 (stereo not shown)	1129.46	TOP (perfuming compounds having a volatility ranging from 70,000 to 100 μg/l in air are referred to as “top notes”)	4.01					
CCC(C)C1(C)COC(C2CCC(C)=CC2C)OC1 (stereo not shown)								Odor Threshold ([3]; Table 10, woody note): 1.67E−03 μg/l air; Type [1, 6]: Bottom; Volatility ([1]; Table 10, woody note): 3.82 μg/l air; Log P (n-octanol/water) ([2]; Table 10, woody note): 6.50
C/C=C/C(=O)C1=C(C)C=CCC1(C)C			3.33					Odor Threshold ([3]; Table 10, woody note): 3.00E−06 μg/l air; Type [1, 6]: Middle; Volatility ([1]; Table 10, woody note): 91.38 μg/l air; Log P (n-octanol/water) ([2]; Table 10, woody note): 3.33
Cc1ccc(OCC=O)cc1				6.46E−05	Middle	89.41	1.99	
C=C(C)[C@@H]1CC=C(CO)CC1				2.07E−02	Bottom	33.78	2.68	
COC(=O)OC1CC/C=C\CCC1 (racemic)				3.69E−04	Top	278.83	3.02	
C=CC(CCCCC)OC(C)=O (racemic) [(+−)-1-PENTYL-2-PROPENYL ACETATE]	1506.95	TOP (perfuming compounds having a volatility ranging from 70,000 to 100 μg/l in air are referred to as “top notes”)	3.79					
CCC(C)C(=O)OCCc1ccccc1 (racemic) [(+−)-2-PHENYLETHYL 2-METHYLBUTANOATE]	37.73	Bottom	3.64					Odor Threshold [3, 4]: 8.56E−03 μg/l air; Odor Value [3, 4]: 4.41E+03
CC(=O)C(C)O (racemic) [(+−)-3-HYDROXY-2-BUTANONE]				1.46E−02	Top	33382.87	−1.03	Odor Threshold [3, 10]: 1.46E−02 μg/l air; Odor Value [3, 10]: 2.28E+06; Odor Threshold ([3]; Table 9, gourmand note): 1.46E−02 μg/l air; Volatility [1, 10]: 33382.87 μg/l air; Type ([1]; Table 8, perfuming compounds having a sweet note, note type by volatility): Top; Volatility ([1]; Table 9, gourmand note): 33382.87 μg/l air; Type [1, 11]: Top; Log P (n-octanol/water) [2, 10]: −1.03; Log P (n-octanol/water) ([2]; Table 9, gourmand note): −1.03
CC(CC=O)c1ccccc1 (racemic) [(+−)-3-PHENYLBUTANAL]				3.89E−04	Top	227.83	2.34	
CCCCC1CCC(=O)O1 (racemic) [(+−)-4-OCTANOLIDE]	108.41	TOP (perfuming compounds having a volatility ranging from 70,000 to 100 μg/l in air are referred to as “top notes”)	1.80					Odor Threshold [3, 4]: 2.32E−05 μg/l air; Odor Value [3, 4]: 4.67E+06; Odor Threshold ([3]; Table 9, gourmand note): 2.32E−05 μg/l air; Volatility ([1]; Table 9, gourmand note): 108.41 μg/l air; Type [1, 11]: Top; Log P (n-octanol/water) ([2]; Table 9, gourmand note): 1.80
CC/C=C\CCOC(=O)C(C)CC (racemic) [(+−)-(Z)-3-HEXENYL 2-METHYLBUTANOATE]	833.05	TOP (perfuming compounds having a volatility ranging from 70,000 to 100 μg/l in air are referred to as “top notes”)	3.84	1.96E−02	Top	833.05	3.84	
CCCC(C)C(=O)OCC (racemic) [(+−)-ETHYL 2-METHYLPENTANOATE]	35090.18	TOP (perfuming compounds having a volatility ranging from 70,000 to 100 μg/l in air are referred to as “top notes”)	3.05	3.84E−05	Top	35090.18	3.05	
C=C(C)C1CC=C(C)CC1 (single isomer, unassigned; (+)) [(+)-LIMONENE]	10216.93	TOP (perfuming compounds having a volatility ranging from 70,000 to 100 μg/l in air are referred to as “top notes”)	5.40					Odor Threshold (μg/l air) ([3]; Table 7, citrus note): 1.29E−01 μg/l air; Odor Value [3, 12]: 7.92E+04; Volatility (μg/l air) ([1]; Table 7, citrus note): 10216.93 μg/l air; Type [1, 13]: Top; Log P (n-octanol/water) ([2]; Table 7, citrus note): 5.40
COC(OC)C(C)c1ccccc1 (stereo not shown) [1,1-DIMETHOXY-2-PHENYLPROPANE]				1.42E−02	Top	376.94	2.50	
CC(O)c1ccccc1 (stereo not shown) [1-PHENYL-1-ETHANOL]	470.00	TOP (perfuming compounds having a volatility ranging from 70,000 to 100 μg/l in air are referred to as “top notes”)	1.42					
Cc1ccc2c(c1)OCC(=O)CO2 [7-methyl-2H-1,5-benzodioxepin-3(4H)-one]							3.40 and 3.53	
TRICYCLO[5.2.1.0(2,6)]DEC-3-EN-8-YL PROPANOATE (A) + TRICYCLO[5.2.1.0(2,6)]DEC-4-EN-8-YL PROPANOATE (B)								Odor Threshold (μg/l air) ([3]; Table 7, citrus note): 2.44E−04 μg/l air; Odor Value [3, 12]: 1.47E+05; Volatility (μg/l air) ([1]; Table 7, citrus note): 35.82 μg/l air; Type [1, 13]: Bottom
cis-4-(2-methyl-2-propanyl)cyclohexyl acetate (A) + trans-4-(2-methyl-2-propanyl)cyclohexyl acetate (B)								Odor Threshold (μg/l air) ([3]; Table 7, citrus note): 5.43E−02 μg/l air; Odor Value [3, 12]: 5.37E+03; Volatility (μg/l air) ([1]; Table 7, citrus note): 291.85 μg/l air; Type [1, 13]: Top
tricyclo[5.2.1.0~2,6~]dec-3-en-8-yl acetate (A) + tricyclo[5.2.1.0~2,6~]dec-4-en-8-yl acetate (B)								Odor Threshold (μg/l air) ([3]; Table 7, citrus note): 7.19E−04 μg/l air; Odor Value [3, 12]: 1.34E+05; Volatility (μg/l air) ([1]; Table 7, citrus note): 96.53 μg/l air; Type [1, 13]: Middle
